Measurements: patent US9649313B2, “Use of ITK inhibitors for the treatment of cancer” (The University of North Carolina at Chapel Hill, priority 2012, dated 2017)

Key:
CDK2/CycA2 = target: T1, CDK2/CycA2 (Homo sapiens, UniProt P24941); assay: cell-free kinase assay; assay type: biochemical; details: single inhibitor concentration
T1 construct: purchased Carna Biosciences
Excerpt: (§1) We investigated the potency and selectivity of BI 10N against 56 kinases using a cell-free assay (Table 8A).
(§2) The selectivity of this inhibitor was investigated by testing the potency of the inhibitor at two concentrations with 53 kinases by Carna Biosciences (MA) (Table 2).

PDK1 = target: T2, PDK1 (Homo sapiens, UniProt O15530); assay: cell-free kinase assay; assay type: biochemical; details: single inhibitor concentration
T2 construct: purchased Carna Biosciences
Excerpt: as §1, §2

JNK2 = target: T3, JNK2 (Homo sapiens, UniProt P45984); assay: cell-free kinase assay; assay type: biochemical; details: single inhibitor concentration
T3 construct: purchased Carna Biosciences
Excerpt: as §1, §2

PBK = target: T4, PBK (Homo sapiens, UniProt Q96KB5); assay: cell-free kinase assay; assay type: biochemical; details: single inhibitor concentration
T4 construct: purchased Carna Biosciences
Excerpt: as §1, §2

CK1ε = target: T5, CK1ε (Homo sapiens, UniProt P49674); assay: cell-free kinase assay; assay type: biochemical; details: single inhibitor concentration
T5 construct: purchased Carna Biosciences
Excerpt: as §1, §2

EPHB4 = target: T6, EPHB4 (Homo sapiens, UniProt P54760); assay: cell-free kinase assay; assay type: biochemical; details: single inhibitor concentration
T6 construct: purchased Carna Biosciences
Excerpt: as §1, §2

MAPKAPK2 = target: T7, MAPKAPK2 (Homo sapiens, UniProt P49137); assay: cell-free kinase assay; assay type: biochemical; details: single inhibitor concentration
T7 construct: purchased Carna Biosciences
Excerpt: as §1, §2

DYRK1B = target: T8, DYRK1B (Homo sapiens, UniProt Q9Y463); assay: cell-free kinase assay; assay type: biochemical; details: single inhibitor concentration
T8 construct: purchased Carna Biosciences
Excerpt: as §1, §2

ZAP70 = target: T9, ZAP70 (Homo sapiens, UniProt P43403); assay: cell-free kinase assay; assay type: biochemical; details: ATP concentration at approximately the Km for ATP
T9 construct: purchased Carna Biosciences
Excerpt: as §1, §2

TRKB = target: T10, TRKB (Homo sapiens, UniProt Q16620); assay: cell-free kinase assay; assay type: biochemical
T10 construct: purchased Carna Biosciences
Excerpt: as §1, §2

PYK2 = target: T11, PYK2 (Homo sapiens, UniProt Q14289); assay: cell-free kinase assay; assay type: biochemical; details: single inhibitor concentration
T11 construct: purchased Carna Biosciences
Excerpt: as §1, §2

MST1 = target: T12, MST1 (Homo sapiens, UniProt Q13043); assay: cell-free kinase assay; assay type: biochemical
T12 construct: purchased Carna Biosciences
T12 sequence (Q13043 1-487): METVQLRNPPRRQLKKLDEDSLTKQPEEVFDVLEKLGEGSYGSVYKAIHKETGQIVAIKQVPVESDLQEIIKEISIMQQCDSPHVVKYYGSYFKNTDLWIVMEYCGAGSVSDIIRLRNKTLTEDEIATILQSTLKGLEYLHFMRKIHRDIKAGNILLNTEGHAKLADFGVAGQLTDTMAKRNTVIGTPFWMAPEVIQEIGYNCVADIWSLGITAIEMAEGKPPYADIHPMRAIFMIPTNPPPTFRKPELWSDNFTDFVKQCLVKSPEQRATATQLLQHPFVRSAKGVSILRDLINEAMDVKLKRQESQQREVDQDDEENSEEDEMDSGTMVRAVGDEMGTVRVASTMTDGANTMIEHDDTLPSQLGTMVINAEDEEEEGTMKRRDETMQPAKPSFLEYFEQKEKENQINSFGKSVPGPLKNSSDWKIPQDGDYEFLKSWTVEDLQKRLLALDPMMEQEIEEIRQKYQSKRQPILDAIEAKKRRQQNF
Excerpt: as §1, §2

TIE2 = target: T13, TIE2 (Homo sapiens, UniProt Q02763); assay: cell-free kinase assay; assay type: biochemical; details: single inhibitor concentration
T13 construct: purchased Carna Biosciences
Excerpt: as §1, §2

DAPK1 = target: T14, DAPK1 (Homo sapiens, UniProt P53355); assay: cell-free kinase assay; assay type: biochemical; details: single inhibitor concentration
T14 construct: purchased Carna Biosciences
Excerpt: as §1, §2

BLK = target: T15, BLK (Homo sapiens, UniProt P51451); assay: cell-free kinase assay; assay type: biochemical; details: ATP concentration at approximately the Km for ATP
T15 construct: purchased Carna Biosciences
Excerpt: as §1, §2

YES = target: T16, YES (Homo sapiens, UniProt P07947); assay: cell-free kinase assay; assay type: biochemical; details: for IC50: YES
T16 construct: purchased Carna Biosciences
Excerpt: as §1, §2

IRAK4 = target: T17, IRAK4 (Homo sapiens, UniProt Q9NWZ3); assay: cell-free kinase assay; assay type: biochemical
T17 construct: purchased Carna Biosciences
Excerpt: as §1, §2

PAK2 = target: T18, PAK2 (Homo sapiens, UniProt Q13177); assay: cell-free kinase assay; assay type: biochemical; details: single inhibitor concentration
T18 construct: purchased Carna Biosciences
Excerpt: as §1, §2

AMPKα1/β1/γ1 = target: T19, AMPKα1/β1/γ1 (Homo sapiens, UniProt Q13131); assay: cell-free kinase assay; assay type: biochemical; details: single inhibitor concentration
T19 construct: purchased Carna Biosciences
Excerpt: as §1, §2

IKKβ = target: T20, IKKβ (Homo sapiens, UniProt O14920); assay: cell-free kinase assay; assay type: biochemical; details: single inhibitor concentration
T20 construct: purchased Carna Biosciences
Excerpt: as §1, §2

SYK = target: T21, SYK (Homo sapiens, UniProt P43405); assay: cell-free kinase assay; assay type: biochemical; details: single inhibitor concentration
T21 construct: purchased Carna Biosciences
Excerpt: as §1, §2

LYNb = target: T22, LYNb (Homo sapiens, UniProt P07948); assay: cell-free kinase assay; assay type: biochemical; details: ATP concentration at approximately the Km for ATP
T22 construct: purchased Carna Biosciences
Excerpt: as §1, §2

AKT1 = target: T23, AKT1 (Homo sapiens, UniProt P31749); assay: cell-free kinase assay; assay type: biochemical; details: single inhibitor concentration
T23 construct: purchased Carna Biosciences
Excerpt: as §1, §2

PDGFRα = target: T24, PDGFRα (Homo sapiens, UniProt P16234); assay: cell-free kinase assay; assay type: biochemical
T24 construct: purchased Carna Biosciences
Excerpt: as §1, §2

EPHA2 = target: T25, EPHA2 (Homo sapiens, UniProt P29317); assay: cell-free kinase assay; assay type: biochemical; details: single inhibitor concentration
T25 construct: purchased Carna Biosciences
Excerpt: as §1, §2

GSK3β = target: T26, GSK3β (Homo sapiens, UniProt P49841); assay: cell-free kinase assay; assay type: biochemical; details: single inhibitor concentration
T26 construct: purchased Carna Biosciences
Excerpt: as §1, §2

MET = target: T27, MET (Homo sapiens, UniProt P08581); assay: cell-free kinase assay; assay type: biochemical; details: single inhibitor concentration
T27 construct: purchased Carna Biosciences
Excerpt: as §1, §2

AurA = target: T28, AurA (Homo sapiens, UniProt O14965); assay: cell-free kinase assay; assay type: biochemical; details: single inhibitor concentration
T28 construct: purchased Carna Biosciences
Excerpt: as §1, §2

CaMK4 = target: T29, CaMK4 (Homo sapiens, UniProt Q16566); assay: cell-free kinase assay; assay type: biochemical; details: single inhibitor concentration
T29 construct: purchased Carna Biosciences
Excerpt: as §1, §2

PKD2 = target: T30, PKD2 (Homo sapiens, UniProt Q9BZL6); assay: cell-free kinase assay; assay type: biochemical; details: single inhibitor concentration
T30 construct: purchased Carna Biosciences
Excerpt: as §1, §2

p70S6K = target: T31, p70S6K (Homo sapiens, UniProt P23443); assay: cell-free kinase assay; assay type: biochemical; details: single inhibitor concentration
T31 construct: purchased Carna Biosciences
Excerpt: as §1, §2

Erk2 = target: T32, Erk2 (Homo sapiens, UniProt P28482); assay: cell-free kinase assay; assay type: biochemical; details: single inhibitor concentration
T32 construct: purchased Carna Biosciences
Excerpt: as §1, §2

JAK3 = target: T33, JAK3 (Homo sapiens, UniProt P52333); assay: cell-free kinase assay; assay type: biochemical; details: single inhibitor concentration
T33 construct: purchased Carna Biosciences
Excerpt: as §1, §2

[1] = Riether et al., 2009; cited from earlier work

T16 sequence (P07947 whole entry): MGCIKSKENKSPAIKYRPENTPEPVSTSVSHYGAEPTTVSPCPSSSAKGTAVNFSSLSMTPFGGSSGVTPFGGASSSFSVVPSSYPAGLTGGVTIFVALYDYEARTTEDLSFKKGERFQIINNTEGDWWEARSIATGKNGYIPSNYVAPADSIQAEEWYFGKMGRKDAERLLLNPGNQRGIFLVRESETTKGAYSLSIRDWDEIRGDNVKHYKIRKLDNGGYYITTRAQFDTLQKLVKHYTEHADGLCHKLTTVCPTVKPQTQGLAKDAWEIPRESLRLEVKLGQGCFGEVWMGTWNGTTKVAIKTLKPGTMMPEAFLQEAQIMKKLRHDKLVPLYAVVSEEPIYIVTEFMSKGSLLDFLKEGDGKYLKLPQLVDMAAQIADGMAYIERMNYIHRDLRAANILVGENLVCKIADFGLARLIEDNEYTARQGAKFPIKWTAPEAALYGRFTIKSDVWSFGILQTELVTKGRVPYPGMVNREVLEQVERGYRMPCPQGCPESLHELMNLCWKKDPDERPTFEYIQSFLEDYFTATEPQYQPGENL
T10 sequence (Q16620 32-822): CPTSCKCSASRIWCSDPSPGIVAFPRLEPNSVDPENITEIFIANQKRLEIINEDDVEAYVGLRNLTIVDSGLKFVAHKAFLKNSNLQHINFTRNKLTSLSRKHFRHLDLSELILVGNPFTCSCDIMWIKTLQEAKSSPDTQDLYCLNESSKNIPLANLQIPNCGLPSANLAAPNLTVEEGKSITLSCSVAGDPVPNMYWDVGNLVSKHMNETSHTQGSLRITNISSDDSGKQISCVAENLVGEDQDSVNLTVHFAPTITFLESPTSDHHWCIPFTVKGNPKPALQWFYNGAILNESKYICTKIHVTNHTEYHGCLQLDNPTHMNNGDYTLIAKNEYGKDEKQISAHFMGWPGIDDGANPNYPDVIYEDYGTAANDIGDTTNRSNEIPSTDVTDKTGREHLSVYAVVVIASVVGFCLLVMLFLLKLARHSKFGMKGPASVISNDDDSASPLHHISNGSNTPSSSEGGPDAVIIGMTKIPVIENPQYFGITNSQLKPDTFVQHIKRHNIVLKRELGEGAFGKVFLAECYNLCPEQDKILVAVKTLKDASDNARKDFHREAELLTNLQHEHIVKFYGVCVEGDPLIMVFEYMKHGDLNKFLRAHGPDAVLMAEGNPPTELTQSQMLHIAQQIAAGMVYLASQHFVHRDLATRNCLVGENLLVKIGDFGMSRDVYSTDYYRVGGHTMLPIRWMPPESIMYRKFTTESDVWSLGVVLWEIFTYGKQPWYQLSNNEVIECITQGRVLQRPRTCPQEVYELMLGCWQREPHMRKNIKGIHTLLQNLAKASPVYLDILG
T24 sequence (P16234 24-1089): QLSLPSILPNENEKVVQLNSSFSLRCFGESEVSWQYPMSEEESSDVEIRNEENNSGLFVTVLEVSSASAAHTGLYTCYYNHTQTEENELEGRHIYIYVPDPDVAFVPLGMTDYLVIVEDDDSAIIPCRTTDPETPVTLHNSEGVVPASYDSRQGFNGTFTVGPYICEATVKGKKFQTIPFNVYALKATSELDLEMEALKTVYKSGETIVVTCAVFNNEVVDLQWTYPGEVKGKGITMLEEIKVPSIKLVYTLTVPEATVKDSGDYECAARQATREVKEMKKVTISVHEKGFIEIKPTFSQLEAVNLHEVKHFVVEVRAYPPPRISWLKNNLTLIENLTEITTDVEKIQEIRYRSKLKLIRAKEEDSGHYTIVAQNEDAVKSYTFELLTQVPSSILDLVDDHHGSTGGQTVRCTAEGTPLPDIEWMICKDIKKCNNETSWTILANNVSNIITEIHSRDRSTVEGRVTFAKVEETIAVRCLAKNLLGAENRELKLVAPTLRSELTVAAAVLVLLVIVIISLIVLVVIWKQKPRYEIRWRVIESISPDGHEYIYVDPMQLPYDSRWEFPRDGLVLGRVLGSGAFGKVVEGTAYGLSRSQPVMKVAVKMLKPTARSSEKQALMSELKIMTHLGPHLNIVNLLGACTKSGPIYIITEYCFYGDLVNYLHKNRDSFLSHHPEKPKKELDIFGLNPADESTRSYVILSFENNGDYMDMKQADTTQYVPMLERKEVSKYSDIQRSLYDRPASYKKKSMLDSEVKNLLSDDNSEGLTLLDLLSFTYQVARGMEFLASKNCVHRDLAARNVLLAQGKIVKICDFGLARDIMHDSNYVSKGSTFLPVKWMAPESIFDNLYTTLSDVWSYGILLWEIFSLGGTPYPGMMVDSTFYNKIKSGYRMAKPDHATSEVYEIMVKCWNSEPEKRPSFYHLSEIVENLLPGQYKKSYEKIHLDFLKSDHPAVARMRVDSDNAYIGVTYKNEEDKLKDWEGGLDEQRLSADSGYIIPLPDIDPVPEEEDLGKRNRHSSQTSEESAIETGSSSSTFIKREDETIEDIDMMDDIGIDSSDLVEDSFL
T17 sequence (Q9NWZ3 whole entry): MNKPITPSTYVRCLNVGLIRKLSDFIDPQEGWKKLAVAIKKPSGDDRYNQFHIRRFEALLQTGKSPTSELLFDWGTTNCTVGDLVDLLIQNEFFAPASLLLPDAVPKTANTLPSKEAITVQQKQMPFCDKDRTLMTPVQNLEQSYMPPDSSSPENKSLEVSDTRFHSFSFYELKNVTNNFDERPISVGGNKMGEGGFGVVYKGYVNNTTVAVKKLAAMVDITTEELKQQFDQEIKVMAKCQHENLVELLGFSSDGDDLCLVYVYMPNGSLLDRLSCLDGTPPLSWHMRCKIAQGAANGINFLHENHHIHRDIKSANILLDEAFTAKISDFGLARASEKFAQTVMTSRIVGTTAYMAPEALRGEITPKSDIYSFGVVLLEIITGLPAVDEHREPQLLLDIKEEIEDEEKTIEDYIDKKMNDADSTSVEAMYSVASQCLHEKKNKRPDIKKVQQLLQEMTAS
T18 sequence (Q13177 whole entry): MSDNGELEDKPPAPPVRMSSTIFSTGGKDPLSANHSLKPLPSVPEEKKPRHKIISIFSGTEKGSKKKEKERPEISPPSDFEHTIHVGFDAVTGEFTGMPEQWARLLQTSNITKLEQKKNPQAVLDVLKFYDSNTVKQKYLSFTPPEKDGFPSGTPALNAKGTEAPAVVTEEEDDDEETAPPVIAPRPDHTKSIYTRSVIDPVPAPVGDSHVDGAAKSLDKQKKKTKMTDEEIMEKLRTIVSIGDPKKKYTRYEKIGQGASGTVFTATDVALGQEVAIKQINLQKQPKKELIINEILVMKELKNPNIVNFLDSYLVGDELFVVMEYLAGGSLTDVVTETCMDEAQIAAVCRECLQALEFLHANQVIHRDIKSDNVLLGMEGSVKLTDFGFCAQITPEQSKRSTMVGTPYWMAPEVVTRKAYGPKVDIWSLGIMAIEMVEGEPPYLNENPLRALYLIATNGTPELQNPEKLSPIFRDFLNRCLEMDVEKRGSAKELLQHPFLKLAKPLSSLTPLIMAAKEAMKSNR
T29 sequence (Q16566 whole entry): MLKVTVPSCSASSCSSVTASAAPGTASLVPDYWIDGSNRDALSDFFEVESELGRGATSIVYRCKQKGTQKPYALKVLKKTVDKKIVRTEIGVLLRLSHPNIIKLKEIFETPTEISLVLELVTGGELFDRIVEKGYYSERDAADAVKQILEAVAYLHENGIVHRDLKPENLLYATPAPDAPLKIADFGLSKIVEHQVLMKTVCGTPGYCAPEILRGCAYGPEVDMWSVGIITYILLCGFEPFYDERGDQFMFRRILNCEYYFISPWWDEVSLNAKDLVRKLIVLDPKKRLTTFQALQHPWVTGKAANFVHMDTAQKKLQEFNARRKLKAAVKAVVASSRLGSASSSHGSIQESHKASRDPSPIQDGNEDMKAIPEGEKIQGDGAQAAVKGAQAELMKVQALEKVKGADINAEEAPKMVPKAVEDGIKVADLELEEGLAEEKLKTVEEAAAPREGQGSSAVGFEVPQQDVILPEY
T15 sequence (P51451 whole entry): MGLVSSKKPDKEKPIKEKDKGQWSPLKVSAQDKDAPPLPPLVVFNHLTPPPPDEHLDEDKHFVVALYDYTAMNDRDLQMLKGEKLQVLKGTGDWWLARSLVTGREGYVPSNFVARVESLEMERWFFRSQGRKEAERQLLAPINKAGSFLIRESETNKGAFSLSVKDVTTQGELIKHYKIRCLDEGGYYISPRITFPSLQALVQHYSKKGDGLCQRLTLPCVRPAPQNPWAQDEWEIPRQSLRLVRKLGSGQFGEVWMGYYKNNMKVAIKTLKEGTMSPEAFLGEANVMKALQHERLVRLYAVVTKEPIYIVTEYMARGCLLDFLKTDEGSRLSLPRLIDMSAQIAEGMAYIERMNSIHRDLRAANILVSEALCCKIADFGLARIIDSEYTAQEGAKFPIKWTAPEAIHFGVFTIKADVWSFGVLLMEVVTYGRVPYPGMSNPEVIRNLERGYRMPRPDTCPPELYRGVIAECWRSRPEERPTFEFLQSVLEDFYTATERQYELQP
T26 sequence (P49841 whole entry): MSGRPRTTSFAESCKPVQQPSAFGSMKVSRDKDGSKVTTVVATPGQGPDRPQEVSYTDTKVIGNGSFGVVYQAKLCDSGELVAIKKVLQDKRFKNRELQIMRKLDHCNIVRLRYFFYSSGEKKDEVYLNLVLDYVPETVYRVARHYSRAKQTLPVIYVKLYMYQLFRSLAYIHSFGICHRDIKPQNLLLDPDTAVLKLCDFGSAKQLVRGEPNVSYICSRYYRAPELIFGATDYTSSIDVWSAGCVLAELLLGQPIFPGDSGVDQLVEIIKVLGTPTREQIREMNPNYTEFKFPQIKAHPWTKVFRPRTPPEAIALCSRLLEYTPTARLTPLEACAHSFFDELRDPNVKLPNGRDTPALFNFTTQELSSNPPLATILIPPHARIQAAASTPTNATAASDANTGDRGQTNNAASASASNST

SMILES: CC(C)C(C)CNCc1ccc2c(c1)[nH]/c(=N\C(=O)c1ccc(C3=CN=NC3)s1)n2CC(C)(C)O (centres unmarked) [BI 10N]
- inhibition at 0.2 µM (CDK2/CycA2): 72.3%
- inhibition at 0.2 µM (PDK1): 1.5%
- inhibition at 0.2 µM (JNK2): -0.1%
- inhibition at 0.2 µM (PBK): 1.7%
- inhibition at 0.2 µM (CK1ε): 76.2%
- inhibition at 0.2 µM (EPHB4): 52.1%
- inhibition at 0.2 µM (MAPKAPK2): -5.2%
- inhibition at 0.2 µM (DYRK1B): 79.6%
- IC50 (ZAP70): 7090 nM
- IC50 (TRKB): 1.28 nM
- selectivity for ITK over TRKB (TRKB): about 10 fold
- inhibition at 0.2 µM (PYK2): 35.1%
- IC50 (MST1; Table 2, by Carna Biosciences): 26 nM
- inhibition at 0.2 µM (MST1; single inhibitor concentration): 91.7%
- inhibition at 0.2 µM (TIE2): 8.2%
- inhibition at 0.2 µM (DAPK1): 5.5%
- IC50 (BLK): 52.2 nM
- selectivity for ITK over YES (YES): about 10 fold
- IC50 (YES; 1 mM ATP, Km ATP 13 μM): 5.9 nM
- IC50 (YES; ATP concentration at approximately the Km for ATP): 0.993 nM
- IC50 (YES; Table 2, by Carna Biosciences): 0.993 nM
- IC50 (IRAK4; Table 2, by Carna Biosciences): 3.14 nM
- inhibition at 0.2 µM (IRAK4; single inhibitor concentration): 105%
- inhibition at 0.2 µM (PAK2): 4.5%
- inhibition at 0.2 µM (AMPKα1/β1/γ1): 15.3%
- inhibition at 0.2 µM (IKKβ): -2.4%
- inhibition at 0.2 µM (SYK): 40.6%
- IC50 (LYNb): 43 nM
- inhibition at 0.2 µM (AKT1): -2.2%
- IC50 (PDGFRα; Table 2, by Carna Biosciences): 10.1 nM
- inhibition at 0.2 µM (PDGFRα; single inhibitor concentration): 101%
- inhibition at 0.2 µM (EPHA2): 7.8%
- inhibition at 0.2 µM (GSK3β): 31.5%
- inhibition at 0.2 µM (MET): 4.1%
- inhibition at 0.2 µM (AurA): 15.9%
- inhibition at 0.2 µM (CaMK4): -4.3%
- inhibition at 0.2 µM (PKD2): 7%
- inhibition at 0.2 µM (p70S6K): 7.6%
- inhibition at 0.2 µM (Erk2): -1.5%
- inhibition at 0.2 µM (JAK3): 75%
- F value (bioavailable in mice) [1]: 21%
